Data taken from publication PMC11354310, “The Discovery of a Specific CKIP-1 Ligand for the Potential Treatment of Disuse Osteoporosis” (International Journal of Molecular Sciences, 2024).
pKd: −log10 of the molar value.

Legend:
[1] = biological target: T1, CKIP-1 (casein kinase 2 interacting protein-1) (Homo sapiens, UniProt Q53GL0); test: SPR (Biacore T200, GST-CKIP-1-C1 captured on CM5 via anti-GST); supported by CETSA in HEK293T cells with Flag-CKIP-1; format: binding
T1 construct: gene PLEKHO1; GST-CKIP-1-C1 (C-terminal leucine zipper region, 345–409)
T1 sequence (Q53GL0 345-409): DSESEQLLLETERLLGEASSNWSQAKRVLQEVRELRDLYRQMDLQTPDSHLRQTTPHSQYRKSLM

[2] = biological target: T1, CKIP-1 (casein kinase 2 interacting protein-1); test: SPR (Biacore T200, GST-CKIP-1-C1 captured on CM5 via anti-GST); format: binding

pKd [1] | pKd [2] | Compound
7.57 |  | CNC(=O)c1c(F)ccc(NS(=O)(=O)c2ccc(OC)nc2)c1-c1cc(C(F)(F)F)cc(C(F)(F)F)c1 [C77]
 | 5.66 | CNC(=O)C1(NC(=O)/C=C/c2cc(I)cc(OC)c2O)CC1 [C170]
